Data: ChEMBL document CHEMBL2074099, “Divergent regulation of the class II P-glycoprotein gene in primary cultures of hepatocytes versus H35 hepatoma by glucocorticoids” (Cell Growth Differ, 1995)

Assays:
[1] = biological target: T1, ATP-dependent translocase ABCB1 (Rattus norvegicus, UniProt P43245); assay: TP_TRANSPORTER: Northern blot from primary hepatocytes; format: functional, cell-based, Hepatocyte
[2] = biological target: T1, ATP-dependent translocase ABCB1; assay: TP_TRANSPORTER: Western blot, primary hepatocytes; format: functional, cell-based, Hepatocyte

T1 sequence (P43245 whole entry): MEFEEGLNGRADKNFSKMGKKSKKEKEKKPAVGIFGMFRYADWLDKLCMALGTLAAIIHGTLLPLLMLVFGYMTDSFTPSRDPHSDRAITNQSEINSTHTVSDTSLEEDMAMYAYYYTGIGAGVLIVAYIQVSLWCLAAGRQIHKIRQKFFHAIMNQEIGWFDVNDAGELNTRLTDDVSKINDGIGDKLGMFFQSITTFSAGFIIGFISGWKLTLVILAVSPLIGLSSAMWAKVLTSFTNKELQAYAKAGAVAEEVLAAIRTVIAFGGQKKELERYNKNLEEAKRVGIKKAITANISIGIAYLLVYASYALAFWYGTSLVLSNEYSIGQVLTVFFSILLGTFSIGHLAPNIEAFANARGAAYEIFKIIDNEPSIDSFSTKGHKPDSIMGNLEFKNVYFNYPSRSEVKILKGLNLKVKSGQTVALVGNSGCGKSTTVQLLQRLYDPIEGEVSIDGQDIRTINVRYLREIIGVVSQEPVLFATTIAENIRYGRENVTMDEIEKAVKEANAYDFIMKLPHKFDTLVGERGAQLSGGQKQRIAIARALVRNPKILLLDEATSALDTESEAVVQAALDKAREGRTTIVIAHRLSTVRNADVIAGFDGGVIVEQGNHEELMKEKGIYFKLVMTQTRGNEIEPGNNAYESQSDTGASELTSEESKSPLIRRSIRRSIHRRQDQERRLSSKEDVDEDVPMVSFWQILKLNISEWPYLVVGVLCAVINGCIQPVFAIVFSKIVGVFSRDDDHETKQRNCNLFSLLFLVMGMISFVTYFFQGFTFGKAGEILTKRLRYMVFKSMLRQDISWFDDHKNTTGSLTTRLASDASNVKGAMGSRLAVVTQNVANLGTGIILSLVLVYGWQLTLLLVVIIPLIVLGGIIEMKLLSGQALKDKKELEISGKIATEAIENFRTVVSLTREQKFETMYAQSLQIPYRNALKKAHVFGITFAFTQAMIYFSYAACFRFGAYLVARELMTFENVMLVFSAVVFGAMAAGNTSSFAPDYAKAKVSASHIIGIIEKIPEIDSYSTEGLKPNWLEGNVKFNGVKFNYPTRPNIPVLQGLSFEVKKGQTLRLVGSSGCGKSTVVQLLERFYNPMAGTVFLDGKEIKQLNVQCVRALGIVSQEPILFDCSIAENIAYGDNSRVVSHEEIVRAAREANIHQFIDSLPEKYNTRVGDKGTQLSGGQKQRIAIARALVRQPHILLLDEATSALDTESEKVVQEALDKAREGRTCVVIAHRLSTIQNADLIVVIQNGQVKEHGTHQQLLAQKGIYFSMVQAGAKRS

Activity [1]: inducer [Decrease]
Activity [2]: inducer [Decrease]
Structure (SMILES): C[C@@H]1C[C@H]2[C@@H]3CCC4=CC(=O)C=C[C@]4(C)[C@@]3(F)[C@@H](O)C[C@]2(C)[C@@]1(O)C(=O)CO [DEXAMETHASONE]
